According to PubChem BioAssay (NCI):
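These data come from cells grown in 96-well plates and exposed to compound for 48 hours at five concentrations. At the TGI there is no net growth.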

Experiments:
Assay in all cases: inhibition of tumour cell growth, NCI panel, 48 h
NCI-H226 lung = system: NCI-H226 lung
MOLT-4 leukemia = system: MOLT-4 leukemia
BT-549 breast = system: BT-549 breast
RXF 393 renal = system: RXF 393 renal
U251 CNS = system: U251 CNS
SNB-19 CNS = system: SNB-19 CNS
NCI-H522 lung = system: NCI-H522 lung
A549 NSCLC = system: A549 NSCLC
MCF7 breast = system: MCF7 breast
DU-145 prostate = system: DU-145 prostate
HCT-116 colon = system: HCT-116 colon
HT29 colon = system: HT29 colon
IGROV1 ovarian = system: IGROV1 ovarian
HCT-15 colon = system: HCT-15 colon
SF-268 CNS = system: SF-268 CNS
UACC-257 melanoma = system: UACC-257 melanoma
A498 renal = system: A498 renal
CAKI-1 renal = system: CAKI-1 renal
EKVX NSCLC = system: EKVX NSCLC
SNB-75 CNS = system: SNB-75 CNS
HOP-92 NSCLC = system: HOP-92 NSCLC
SF-295 CNS = system: SF-295 CNS
UO-31 renal = system: UO-31 renal
MDA-N = system: MDA-N
KM12 colon = system: KM12 colon
HOP-62 NSCLC = system: HOP-62 NSCLC
PC-3 prostate = system: PC-3 prostate
LOX IMVI melanoma = system: LOX IMVI melanoma
SF-539 CNS = system: SF-539 CNS
ACHN renal = system: ACHN renal
T-47D breast = system: T-47D breast
OVCAR-4 ovarian = system: OVCAR-4 ovarian
SK-OV-3 ovarian = system: SK-OV-3 ovarian
786-0 renal = system: 786-0 renal
OVCAR-8 ovarian = system: OVCAR-8 ovarian
SW-620 colon = system: SW-620 colon
CCRF-CEM leukemia = system: CCRF-CEM leukemia
SK-MEL-5 melanoma = system: SK-MEL-5 melanoma
SN12C renal = system: SN12C renal
NCI-H23 lung = system: NCI-H23 lung
UACC-62 melanoma = system: UACC-62 melanoma
MALME-3M melanoma = system: MALME-3M melanoma
COLO 205 colon = system: COLO 205 colon
OVCAR-5 ovarian = system: OVCAR-5 ovarian
NCI-H460 lung = system: NCI-H460 lung
TK-10 renal = system: TK-10 renal
MDA-MB-231 breast = system: MDA-MB-231 breast
OVCAR-3 ovarian = system: OVCAR-3 ovarian
K-562 leukemia = system: K-562 leukemia
NCI/ADR-RES ovarian = system: NCI/ADR-RES ovarian
MDA-MB-435 = system: MDA-MB-435
SK-MEL-28 melanoma = system: SK-MEL-28 melanoma
SK-MEL-2 melanoma = system: SK-MEL-2 melanoma
HS 578T breast = system: HS 578T breast
M14 melanoma = system: M14 melanoma

COC(=O)[C@@H]1[C@@H](c2cccc(Cl)c2)[C@H](C(=O)OC)C2(C[C@@]1(C)O)NCCS2 (stereo not given in full)
TGI (NCI-H226 lung): > 100 µM
TGI (MOLT-4 leukemia): 42.1 µM
TGI (BT-549 breast): > 100 µM
TGI (RXF 393 renal): > 100 µM
TGI (U251 CNS): > 100 µM
TGI (SNB-19 CNS): > 100 µM
TGI (NCI-H522 lung): > 100 µM
TGI (A549 NSCLC): > 100 µM
TGI (MCF7 breast): > 100 µM
TGI (DU-145 prostate): > 100 µM
TGI (HCT-116 colon): > 100 µM
TGI (HT29 colon): > 100 µM
TGI (IGROV1 ovarian): > 100 µM
TGI (HCT-15 colon): > 100 µM
TGI (SF-268 CNS): > 100 µM
TGI (UACC-257 melanoma): > 100 µM
TGI (A498 renal): > 100 µM
TGI (CAKI-1 renal): > 100 µM
TGI (EKVX NSCLC): > 100 µM
TGI (SNB-75 CNS): > 100 µM
TGI (HOP-92 NSCLC): > 100 µM
TGI (SF-295 CNS): > 100 µM
TGI (UO-31 renal): > 100 µM
TGI (MDA-N): > 100 µM
TGI (KM12 colon): > 100 µM
TGI (HOP-62 NSCLC): > 100 µM
TGI (PC-3 prostate): > 100 µM
TGI (LOX IMVI melanoma): > 100 µM
TGI (SF-539 CNS): > 100 µM
TGI (ACHN renal): > 100 µM
TGI (T-47D breast): > 100 µM
TGI (OVCAR-4 ovarian): > 100 µM
TGI (SK-OV-3 ovarian): > 100 µM
TGI (786-0 renal): > 100 µM
TGI (OVCAR-8 ovarian): > 100 µM
TGI (SW-620 colon): > 100 µM
TGI (CCRF-CEM leukemia): 14.6 µM
TGI (SK-MEL-5 melanoma): > 100 µM
TGI (SN12C renal): > 100 µM
TGI (NCI-H23 lung): > 100 µM
TGI (UACC-62 melanoma): > 100 µM
TGI (MALME-3M melanoma): > 100 µM
TGI (COLO 205 colon): > 100 µM
TGI (OVCAR-5 ovarian): > 100 µM
TGI (NCI-H460 lung): > 100 µM
TGI (TK-10 renal): > 100 µM
TGI (MDA-MB-231 breast): > 100 µM
TGI (OVCAR-3 ovarian): > 100 µM
TGI (K-562 leukemia): > 100 µM
TGI (NCI/ADR-RES ovarian): > 100 µM
TGI (MDA-MB-435): > 100 µM
TGI (SK-MEL-28 melanoma): > 100 µM
TGI (SK-MEL-2 melanoma): 94 µM
TGI (HS 578T breast): > 100 µM
TGI (M14 melanoma): > 100 µM
